One assay concerns the target T1, MOR (Mus musculus, UniProt P42866).
T1 construct: expressed in transfected cells
As to the kind of experiment: [35S]-GTPγS functional assay at MOR. To be noted: relative to 3 μM DAMGO; mean ± SEM (n ≥ 3). It counts as biochemical.

The next assay deals with T2, KOR (Mus musculus, UniProt P33534).
T2 construct: expressed in transfected cells; host or cells: CHO cells (provided by Dr. Selley, Virginia Commonwealth University)
As to the kind of experiment: competitive radioligand binding assay, KOR. To be noted: CHO cell membranes; mean ± SEM (n ≥ 3).

In assay [1] the target is T3, human δ-opioid receptor (DOR) (Homo sapiens, UniProt P41143).
T3 construct: expressed in transfected cells; host or cells: CHO cells (provided by Dr. Selley, Virginia Commonwealth University)
Kind of assay: competitive radioligand binding assay, DOR. To be noted: CHO cell membranes; mean ± SEM (n ≥ 3).

The term Ki denotes a measure of affinity in units of concentration, obtained from inhibition or displacement. Higher therefore signals a looser hold on the target. On to `O=C(N[C@H]1CC[C@@]2(O)[C@H]3Cc4ccc(O)c5c4[C@@]2(CCN3CC2CC2)[C@H]1O5)c1cccc2cc[nH]c12` [NAN, 17-cyclopropylmethyl-3,14β-dihydroxy-4,5α-epoxy-6α-(indole-7-carboxamido)morphinan], for which, at MOR, the “MOR [35S]-GTPγS binding % Emax of DAMGO” value stood at 19.11 ±3.31%. In addition, the Ki came out at 1.69 ± 0.35 nM on KOR and 13.7 ± 1.39 nM in assay [1].
